Assay results: patent publication US8669072B2, “Oxadiazoline ligands for modulating the expression of exogenous genes via an ecdysone receptor complex” (Intrexon Corporation, priority 2003, dated 2014)

What was measured:
[1] = biological target: T1, GAL4 DBD-CfEcR(DEF)/VP16AD-MmRXRE (Choristoneura fumiferana, UniProt O77240); assay: 13B3 assay: luciferase reporter gene induction in stable CHO clone 13B3; type: cell-based; conditions: 33/33.3 μM ligand, 48 h, RLU relative to DMSO; for fold induction at 33.3 µM: read-out: Fold Induction Average, 13B3 assay
T1 construct: The wild-type D, E, and F domains from spruce budworm Choristoneura fumiferana EcR (“CfEcR-DEF”)
Procedure: CHO cells were transiently transfected with transcription cassettes for GAL4 DBD-CfEcR(DEF) and for VP16AD-MmRXRF controlled by SV40e promoters. Stably transfected cells were selected using Hygromycin. Individually isolated CHO cell clones were transiently transfected with a GAL4 RE-luciferase reporter (pFR-Luc, Stratagene, La Jolla, Calif.). The 13B3 clone was selected using Zeocin.
Cells were trypsinized and diluted to a concentration of 2.5×10^4 cells mL. 100 μL of cell suspension was placed in each well of a 96 well plate and incubated at 37° C. under 5% CO2 for 24 h. Ligand stock solutions were prepared in DMSO and diluted 300 fold for all treatments.
Luciferase reporter gene expression was measured 48 h after cell treatment using Bright-Glo™ Luciferase Assay System from Promega (E2650). Luminescence was detected at room temperature using a Dynex MLX microtiter plate luminometer.
(§1) Each assay was conducted in two separate wells, and the two values were averaged. Fold inductions were calculated by dividing relative light units (“RLU”) in ligand treated cells with RLU in DMSO treated cells. EC50s were calculated from dose response data using a three-parameter logistic model.

[2] = biological target: T2, Bombyx mori EcR (VBE) (Bombyx mori, UniProt P49881); assay: Z3 assay: β-galactosidase reporter gene induction in HEK-293 clone Z3 (CVBE / 6XEcRE LacZ); type: cell-based; conditions: 33 μM ligand, 48 h, RLU relative to DMSO; for fold induction at 33 µM: HEK293, read-out: Fold Induction Average, Z3 assay
T2 construct: expressed in transfected cells; host or cells: Human HEK-293 cells, retrovirally infected, clone Z3
T2 sequence (P49881 86-606 limits assumed): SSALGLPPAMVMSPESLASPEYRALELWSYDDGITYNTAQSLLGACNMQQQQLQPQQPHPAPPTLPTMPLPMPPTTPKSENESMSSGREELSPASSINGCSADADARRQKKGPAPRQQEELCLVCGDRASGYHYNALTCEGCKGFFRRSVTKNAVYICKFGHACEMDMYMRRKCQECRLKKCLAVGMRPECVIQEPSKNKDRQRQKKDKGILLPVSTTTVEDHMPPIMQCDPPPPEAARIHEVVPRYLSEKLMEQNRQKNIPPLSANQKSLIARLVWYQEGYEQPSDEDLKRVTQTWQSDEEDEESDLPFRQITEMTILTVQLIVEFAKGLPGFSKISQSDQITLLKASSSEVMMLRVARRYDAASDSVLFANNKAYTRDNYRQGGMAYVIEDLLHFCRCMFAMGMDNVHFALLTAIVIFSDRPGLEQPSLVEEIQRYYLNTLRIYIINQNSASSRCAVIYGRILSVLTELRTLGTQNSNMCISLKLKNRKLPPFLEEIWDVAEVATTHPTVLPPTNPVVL
T2 sequence (P19793 1-462 partner): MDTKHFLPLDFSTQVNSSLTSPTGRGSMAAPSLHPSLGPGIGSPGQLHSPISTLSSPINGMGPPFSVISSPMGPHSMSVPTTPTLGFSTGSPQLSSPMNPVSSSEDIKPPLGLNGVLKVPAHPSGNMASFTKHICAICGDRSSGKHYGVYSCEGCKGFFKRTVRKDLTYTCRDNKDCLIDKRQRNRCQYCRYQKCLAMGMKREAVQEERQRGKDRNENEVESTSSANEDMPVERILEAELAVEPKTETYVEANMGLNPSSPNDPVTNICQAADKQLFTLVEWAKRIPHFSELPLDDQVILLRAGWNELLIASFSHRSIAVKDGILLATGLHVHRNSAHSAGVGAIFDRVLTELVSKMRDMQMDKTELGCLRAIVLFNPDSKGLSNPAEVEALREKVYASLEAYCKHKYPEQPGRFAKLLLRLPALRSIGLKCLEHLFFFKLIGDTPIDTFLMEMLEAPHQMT
Procedure: A synthetic ATG start codon was placed under the control of cytomegalovirus (CVBE) immediate early promoter and flanked by long terminal repeats (LTR). The reporter construct contained six copies of the ecdysone response element (EcRE) binding site placed upstream of LacZ and flanked on both sides with LTR sequences (6×EcRE).
Dilution cloning was used to isolate individual clones. Clones were selected using 450 ug/mL G418 and 100 ng/mL puromycin. Individual clones were evaluated based on their response in the presence and absence of test ligands.
Z3 cells were seeded into 96-well tissue culture plates at a concentration of 2.5×10^3 cells per well and incubated at 37° C. in 5% CO2 for twenty-four hours. Stock solutions of ligands were prepared in DMSO. […] The final concentration of DMSO was maintained at 0.03% in both controls and treatments.
Reporter gene expression was evaluated 48 hours after treatment of cells, β-galactosidase activity was measured using Gal Screen™ bioluminescent reporter gene assay system from Tropix (GSY1000). Fold induction activities were calculated by dividing relative light units (“RLU”) in ligand treated cells with RLU in DMSO treated cells. Luminescence was detected at room temperature using a Dynex MLX microtiter plate luminometer.
as §1

SMILES | Fold Induction Average, 13B3 assay [1] | Fold Induction Average, Z3 assay [2] | fold induction at 33.3 µM [1] | fold induction at 33 µM [2]
Cc1cc(C)cc(C2=NOC3(CCCC3)N2NC(=O)COCc2ccccc2)c1 [RG-120052] | 0.7 | 4.9 | – | –
Cc1cccc(NC(=O)NN2C(c3cc(C)cc(C)c3)=NOC2(C)C)c1 [RG-120056] | 0.1 | 1.0 | – | –
COc1ccccc1C1=NOC(C)(C)N1NC(=O)COc1ccccc1 [RG-120057] | 0.6 | 0.8 | – | –
COc1ccccc1C1=NOC(C)(C)N1NC(=O)C(F)(F)C(F)(F)Cl [RG-120062] | 0.2 | 0.6 | – | –
CC1(C)ON=C(c2ccc(OC(F)(F)F)cc2)N1NC(=O)COCc1ccccc1 [RG-120066] | 1.4 | 0.6 | – | –
CC1(C)ON=C(c2ccc(Cl)cc2)N1NC(=O)Nc1ccccc1 [RG-120067] | 2.6 | 0.5 | – | –
CC1(C)ON=C(c2cccc(C(F)(F)F)c2)N1NC(=O)c1ccco1 [RG-120070] | 0.4 | 0.7 | – | –
Cc1cc(C)cc(C2=NOC(C)(C)N2NC(=O)Nc2ccccc2)c1 [RG-120072, 1-[3-(3,5-Dimethyl-phenyl)-5,5-dimethyl-[1,2,4]oxadiazol-4-yl]-3-phenyl-urea] | – | – | 0.6 | 1.3
CC1(C)ON=C(c2ccc(Cl)cc2)N1NC(=O)C(F)(F)C(F)(F)Cl [RG-120073] | 0.9 | 0.5 | – | –
COc1ccccc1C(=O)NN1C(c2cc(C)cc(C)c2)=NOC1(C)C [RG-120075] | 1.1 | 0.7 | – | –
COc1ccc(C2=NOC(C)(C)N2NC(=O)COc2ccccc2)c(OC)c1 [RG-120079] | 0.7 | 0.6 | – | –
CC1(C)ON=C(c2ccc3c(c2)OCO3)N1NC(=O)Cc1ccccc1 [RG-120081] | 0.5 | 0.6 | – | –
CC1(C)ON=C(c2ccc(Cl)cc2)N1NC(=O)c1ccco1 [RG-120082] | 0.1 | 0.8 | – | –
CCOC(=O)CCC(=O)NN1C(c2ccc3c(c2)OCO3)=NOC1(C)C [RG-120083] | 1.3 | 0.8 | – | –
COc1cccc(C(=O)NN2C(c3cc(C)cc(C)c3)=NOC23CCOCC3)c1C [RG-120086, N-[3-(3,5-dimethyl-phenyl)-1,8-dioxa-2,4-diaza-spiro[4.5]dec-2-en-4-yl]-3-methoxy-2-methyl-benzamide] | – | – | 4 | 112
CC1(C)ON=C(c2ccc(Cl)cc2)N1NC(=O)c1cc2ccccc2s1 [RG-120087] | 0.4 | 0.4 | – | –
Cc1cc(C)cc(C2=NOC(C)(C)N2NC(=O)NCc2ccccc2)c1 [RG-120088] | 0.9 | 8.2 | – | –
Cc1cc(C)cc(C2=NOC(C)(C)N2NC(=O)c2cccc([N+](=O)[O-])c2)c1 [RG-120091] | 0.5 | 1.5 | – | –
CC1(C)ON=C(c2ccc(OC(F)(F)F)cc2)N1NC(=O)c1ccco1 [RG-120094] | 0.6 | 0.8 | – | –
Cc1cc(C)cc(C2=NOC(C)(C)N2NC(=O)c2ccccc2[N+](=O)[O-])c1 [RG-120098] | 0.3 | 1.8 | – | –
